The values that follow come from ChEMBL document CHEMBL4619728, “A chemically stable peptide agonist to neuromedin U receptor type 2” (Bioorg Med Chem, 2020).

Data set [1] concerns the target T1, Neuromedin-U receptor 1 (Homo sapiens) (UniProt Q9HB89).
T1 sequence (whole entry): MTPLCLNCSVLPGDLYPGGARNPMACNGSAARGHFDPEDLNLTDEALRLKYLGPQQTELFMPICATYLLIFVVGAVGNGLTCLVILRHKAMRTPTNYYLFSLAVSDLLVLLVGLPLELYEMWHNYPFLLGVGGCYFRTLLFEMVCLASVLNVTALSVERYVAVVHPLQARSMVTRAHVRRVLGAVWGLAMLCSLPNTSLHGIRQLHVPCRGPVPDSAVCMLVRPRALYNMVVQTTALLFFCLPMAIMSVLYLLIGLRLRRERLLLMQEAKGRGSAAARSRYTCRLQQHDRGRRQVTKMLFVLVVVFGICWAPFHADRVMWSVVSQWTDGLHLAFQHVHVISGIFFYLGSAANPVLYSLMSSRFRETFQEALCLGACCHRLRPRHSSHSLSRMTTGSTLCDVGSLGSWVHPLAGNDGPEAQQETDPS
Put plainly: Agonist activity at human NMUR1 expressed in CHO cells at 10 nM by Fluo-4-AM dye based calcium mobilization assay. Format: functional, cell-based. (In general: A change in cytosolic calcium serves as a functional read-out for many receptors and channels.)

The target in data set [2] is T2, Neuromedin-U receptor 2 (Homo sapiens, UniProt Q9GZQ4). Put plainly: Agonist activity at human NMUR2 expressed in CHO cells at 10 nM by Fluo-4-AM dye based calcium mobilization assay. It counts as functional, cell-based.
T2 sequence (Q9GZQ4 whole entry): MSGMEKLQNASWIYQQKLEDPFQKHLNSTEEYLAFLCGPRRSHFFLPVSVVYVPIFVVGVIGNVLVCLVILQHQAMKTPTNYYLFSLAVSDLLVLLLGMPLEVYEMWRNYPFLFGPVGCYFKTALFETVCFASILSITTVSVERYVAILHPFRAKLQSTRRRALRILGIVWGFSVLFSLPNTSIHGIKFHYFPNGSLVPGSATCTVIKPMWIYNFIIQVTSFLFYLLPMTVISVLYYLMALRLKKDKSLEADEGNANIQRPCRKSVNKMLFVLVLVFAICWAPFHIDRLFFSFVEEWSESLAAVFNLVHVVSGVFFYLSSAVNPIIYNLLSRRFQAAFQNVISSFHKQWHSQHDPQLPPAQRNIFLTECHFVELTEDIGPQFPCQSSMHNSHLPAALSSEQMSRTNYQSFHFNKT
Data set [3] deals with T1, Neuromedin-U receptor 1 (Homo sapiens). Put plainly: Agonist activity at human NMUR1 expressed in CHO cells at 100 nM by Fluo-4-AM dye based calcium mobilization assay. It counts as functional, cell-based.
Data set [4] deals with T2, Neuromedin-U receptor 2. Put plainly: Agonist activity at human NMUR2 expressed in CHO cells at 100 nM by Fluo-4-AM dye based calcium mobilization assay. Format: functional, cell-based.
The target in data set [5] is T2, Neuromedin-U receptor 2. Put plainly: Agonist activity at human NMUR2 expressed in CHO cells at 1 nM by Fluo-4-AM dye based calcium mobilization assay. Format: functional, cell-based.
For data set [6], the target named is T1, Neuromedin-U receptor 1 (Homo sapiens). Put plainly: Agonist activity at human NMUR1 expressed in CHO cells at 1 nM by Fluo-4-AM dye based calcium mobilization assay. It counts as functional, cell-based.
The target of data set [7] is Neuromedin-U receptor 2 (Mus musculus) (UniProt Q8BZ39). Put plainly: Agonist activity at mouse NMUR2 expressed in human HEK293 cells at 10 nM Fluo-4-AM dye based calcium mobilization assay relative to control. It counts as functional, cell-based.
Neuromedin-U receptor 2 (Mus musculus), sequence (Q8BZ39 whole entry): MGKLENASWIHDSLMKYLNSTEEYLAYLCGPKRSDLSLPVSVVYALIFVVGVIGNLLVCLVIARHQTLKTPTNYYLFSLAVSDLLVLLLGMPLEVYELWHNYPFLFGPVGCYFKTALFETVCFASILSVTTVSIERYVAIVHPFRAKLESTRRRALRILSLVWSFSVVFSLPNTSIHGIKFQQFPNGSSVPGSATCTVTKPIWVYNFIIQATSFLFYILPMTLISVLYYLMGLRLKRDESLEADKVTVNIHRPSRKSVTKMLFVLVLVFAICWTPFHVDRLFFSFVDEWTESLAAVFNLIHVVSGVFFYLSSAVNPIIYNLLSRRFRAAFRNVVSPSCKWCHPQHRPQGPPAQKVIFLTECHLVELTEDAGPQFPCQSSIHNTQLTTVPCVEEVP
Data set [8] in a line: Toxicity in ddY mouse assessed as reduction in body weight gain at 25 to 250 ug intranasal administration. Conditions: in vivo, inhaled_or_intranasal.
Data set [9] can be described thus: Chemical stability of compound in pH 5.5 citrate buffer at 50 uM assessed as compound recovery after 72 hrs by spectrometric analysis. Format: physicochemical. The note with it: read-out: Drug recovery.
The nature of data set [10]: Chemical stability of compound in pH 7.4 phosphate buffer at 50 uM assessed as compound recovery after 72 hrs by spectrometric analysis. Conditions: read-out: Drug recovery. Format: physicochemical.
The nature of data set [11]: Toxicity in ddY mouse assessed as reduction in body weight gain at 20 ug ,ip. Conditions: in vivo.
Data set [12] addresses Neuromedin-U receptor 2 (Mus musculus) (UniProt Q8BZ39). Put plainly: Agonist activity at mouse NMUR2 expressed in human HEK293 cells Fluo-4-AM dye based calcium mobilization assay. It counts as functional, cell-based.
In data set [13] the target is T2, Neuromedin-U receptor 2. Put plainly: Agonist activity at human NMUR2 expressed in CHO cells by Fluo-4-AM dye based calcium mobilization assay. Format: functional, cell-based.
A short description of data set [14]: Chemical stability of compound in MES buffer pH 5.5 at 100 mM assessed as compound recovery after 72 hrs by spectrometric analysis. It counts as physicochemical. The note with it: read-out: Drug recovery.
Data set [15] can be described thus: Chemical stability of compound in pH 5.5 citrate-posphate buffer at 50 uM assessed as compound recovery after 72 hrs by spectrometric analysis. Format: physicochemical. The note with it: citrate-phosphate buffer, read-out: Drug recovery.
Data set [16] is described as follows: Chemical stability of compound in pH 5.5 acetate buffer at 50 uM assessed as compound recovery after 72 hrs by spectrometric analysis. Format: physicochemical. Conditions: read-out: Drug recovery.
Data set [17] in a line: Chemical stability of compound in pH 7.4 HEPES buffer at 50 uM assessed as compound recovery after 72 hrs by spectrometric analysis. Format: physicochemical. Conditions: read-out: Drug recovery.

pEC50: −log10 of the molar value. Activity calls are given as the source filed them. The rule behind the calls is not given here. Square brackets hold non-standard residues; d marks the D form. Side chains are listed from the residue outwards. Peptide text beside a SMILES is read from it. * marks the point of attachment. Propanoyl(3-cHex) = O=C(CCC1CCCCC1)*; 2Pal = N[C@@H](Cc1ccccn1)C(=O)O; 3Pal = N[C@@H](Cc1cccnc1)C(=O)O; 4Pal = N[C@@H](Cc1ccncc1)C(=O)O; hSer = N[C@@H](CCO)C(=O)O; Api = NC1(C(=O)O)CCNCC1; Dab = NCC[C@H](N)C(=O)O; Dap = NC[C@H](N)C(=O)O

For the compound `CC(C)C[C@H](NC(=O)CCC1CCCCC1)C(=O)N[C@@H](CC(C)C)C(=O)N[C@H](C(=O)N1CCC[C@H]1C(=O)N[C@@H](CCCNC(=N)N)C(=O)N[C@@H](CC(N)=O)C(N)=O)[C@@H](C)O`, the result in data set [1] and in data set [2] was inactive.

For `CC(C)C[C@H](NC(=O)CCC1CCCCC1)C(=O)N[C@@H](CC(C)C)C(=O)N[C@H](C(=O)N1CCC[C@H]1C(=O)N[C@@H](CCCNC(=N)N)C(=O)N[C@@H](CC(N)=O)C(N)=O)[C@H](C)O`, the result in data set [1] and in data set [2] was inactive.

For the compound `CC(C)C[C@H](NC(=O)CCC1CCCCC1)C(=O)N[C@@H](CC(C)C)C(=O)NCC[C@H](N)C(=O)N1CCC[C@H]1C(=O)N[C@@H](CCCNC(=N)N)C(=O)N[C@@H](CC(N)=O)C(N)=O` (H-[Dab]([Leu-Leu-Propanoyl(3-cHex)])PRN-NH2), the Activity in data set [3] and in data set [4] was 6% throughout.

As for `CC(C)C[C@H](NC(=O)CCC1CCCCC1)C(=O)N[C@@H](CC(C)C)C(=O)N[C@@H](CS)C(=O)N1CCC[C@H]1C(=O)N[C@@H](CCCNC(=N)N)C(=O)N[C@@H](CC(N)=O)C(N)=O` ({Propanoyl(3-cHex)}-LLCPRN-NH2), the outcome in [1] and in data set [2] was inactive.

Consider `CC(C)C[C@H](NC(=O)CCC1CCCCC1)C(=O)N[C@@H](CC(C)C)C(=O)N[C@@H](CC(=O)O)C(=O)N1CCC[C@H]1C(=O)N[C@@H](CCCNC(=N)N)C(=O)N[C@@H](CC(N)=O)C(N)=O` ({Propanoyl(3-cHex)}-LLDPRN-NH2), for which the result in data set [3], in [5], in [6] and in data set [4] was inactive.

Consider `CC(C)C[C@H](NC(=O)CCC1CCCCC1)C(=O)N[C@@H](CC(C)C)C(=O)N[C@@H](CC(N)=O)C(=O)N1CCC[C@H]1C(=O)N[C@@H](CCCNC(=N)N)C(=O)N[C@@H](CC(N)=O)C(N)=O` ({Propanoyl(3-cHex)}-LLNPRN-NH2), for which the result in [5] and in data set [6] was inactive.

As to `COC[C@H](NC(=O)[C@H](CC(C)C)NC(=O)[C@H](CC(C)C)NC(=O)CCC1CCCCC1)C(=O)N1CCC[C@H]1C(=O)N[C@@H](CCCNC(=N)N)C(=O)N[C@@H](CC(N)=O)C(N)=O` ({Propanoyl(3-cHex)}-LLS(Me)PRN-NH2), the outcome in data set [1] and in data set [2] was inactive.

With `CC(C)C[C@H](NC(=O)CCC1CCCCC1)C(=O)N[C@@H](CC(C)C)C(=O)N[C@@H](CO)C(=O)N1CCC[C@H]1C(=O)N[C@@H](CCCNC(=N)N)C(=O)N[C@@H](CC(N)=O)C(N)=O` ({Propanoyl(3-cHex)}-LLSPRN-NH2), the result in data set [3] and in [4] was Active. The result in data set [5] and in data set [6] was inactive.

In the case of `CC(C)C[C@H](NC(=O)CCC1CCCCC1)C(=O)N[C@@H](CC(C)C)C(=O)N[C@@H](Cc1ccccn1)C(=O)N1CCC[C@H]1C(=O)N[C@@H](CCCNC(=N)N)C(=O)N[C@@H](CC(N)=O)C(N)=O` ({Propanoyl(3-cHex)}-LL[2Pal]PRN-NH2), the Activity in data set [7] lay within 20 to 40%.

As for `CC(C)C[C@H](NC(=O)CCC1CCCCC1)C(=O)N[C@@H](CC(C)C)C(=O)N[C@@H](Cc1cccnc1)C(=O)N1CCC[C@H]1C(=O)N[C@@H](CCCNC(=N)N)C(=O)N[C@@H](CC(N)=O)C(N)=O` ({Propanoyl(3-cHex)}-LL[3Pal]PRN-NH2), the Activity in [7] fell in the range of 20 to 40%.

For the compound `CC(C)C[C@H](NC(=O)CCC1CCCCC1)C(=O)N[C@@H](CC(C)C)C(=O)N[C@@H](Cc1ccncc1)C(=O)N1CCC[C@H]1C(=O)N[C@@H](CCCNC(=N)N)C(=O)N[C@@H](CC(N)=O)C(N)=O` ({Propanoyl(3-cHex)}-LL[4Pal]PRN-NH2), the Activity in data set [7] lay in the range of 20 to 40%.

In the case of `CC(C)C[C@H](NC(=O)CCC1CCCCC1)C(=O)N[C@@H](CC(C)C)C(=O)NC1(C(=O)N2CCC[C@H]2C(=O)N[C@@H](CCCNC(=N)N)C(=O)N[C@@H](CC(N)=O)C(N)=O)CCNCC1` ({Propanoyl(3-cHex)}-LL[Api]PRN-NH2), the outcome in data set [7] was inactive.

The pEC50 is the EC50 on a negative log10 scale, so that one unit is a factor of ten. `CC(C)C[C@H](NC(=O)CCC1CCCCC1)C(=O)N[C@@H](CC(C)C)C(=O)N[C@@H](CCN)C(=O)N1CCC[C@H]1C(=O)N[C@@H](CCCNC(=N)N)C(=O)N[C@@H](CC(N)=O)C(N)=O` ({Propanoyl(3-cHex)}-LL[Dab]PRN-NH2): the Activity entry is “Toxic” in data set [8], “Toxic” in data set [11], “Dose-dependent effect” in data set [13] and 100% in data set [7]. The remaining at 72 h, 50 µM was found to be 98% in data set [9] and 95% in data set [10]. For the same compound, the outcome in [12] was Active. In addition, in data set [13], the pEC50 is 8.66.

Turning to `CC(C)C[C@H](NC(=O)CCC1CCCCC1)C(=O)N[C@@H](CC(C)C)C(=O)N[C@@H](CN)C(=O)N1CCC[C@H]1C(=O)N[C@@H](CCCNC(=N)N)C(=O)N[C@@H](CC(N)=O)C(N)=O` ({Propanoyl(3-cHex)}-LL[Dap]PRN-NH2), the remaining at 72 h, 50 µM in [9] was 81%; in data set [10] it was 87%; in [15], 64%; in [16], 89%; in data set [17] it was 92%. Besides, the remaining at 72 h in [14] was 93%.

Turning to `CC(C)C[C@H](NC(=O)CCC1CCCCC1)C(=O)N[C@@H](CC(C)C)C(=O)N[C@@H](CCO)C(=O)N1CCC[C@H]1C(=O)N[C@@H](CCCNC(=N)N)C(=O)N[C@@H](CC(N)=O)C(N)=O` ({Propanoyl(3-cHex)}-LL[hSer]PRN-NH2), the result in data set [1] and in data set [2] was inactive.
